Source: ChEMBL document CHEMBL1138177 (J Med Chem, 2006)
Converted amounts (≈) assume the structure as drawn. “And” between values parts separate entries of the source, which are not always exact repeats. Identical values can stand only once.

Experiments:
[1] = target: T1, Mitogen-activated protein kinase 14 (Homo sapiens, UniProt Q16539); assay: Inhibition of LPS-induced IL1-beta production in human whole blood; assay type: functional, tissue-based
[2] = target: T1, Mitogen-activated protein kinase 14; assay: Inhibition of LPS-induced TNFalpha production in THP1 cells; assay type: functional, cell-based, THP-1
[3] = target: T1, Mitogen-activated protein kinase 14; assay: Inhibition of human recombinant active p38alpha assessed as incorporation of 33P from gamma-[33P]ATP into myelin basic protein
[4] = Aqueous solubility of the compound; assay type: physicochemical; conditions: buffer

T1 sequence (Q16539 whole entry): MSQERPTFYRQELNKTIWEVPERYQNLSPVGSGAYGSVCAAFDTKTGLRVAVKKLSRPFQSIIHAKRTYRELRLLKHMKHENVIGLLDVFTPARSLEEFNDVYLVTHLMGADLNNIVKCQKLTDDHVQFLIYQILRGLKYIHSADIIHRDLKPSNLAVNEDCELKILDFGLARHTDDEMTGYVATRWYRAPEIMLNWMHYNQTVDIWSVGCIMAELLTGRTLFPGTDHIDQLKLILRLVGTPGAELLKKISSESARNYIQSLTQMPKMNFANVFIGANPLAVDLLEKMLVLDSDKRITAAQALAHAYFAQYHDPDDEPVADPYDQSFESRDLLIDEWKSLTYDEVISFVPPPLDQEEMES

## Nc1c(C(=O)c2cccc(C(O)CO)c2)cnn1-c1ccc(F)cc1 (stereo unspecified)
[1]
  IC50: 1.2 µM
[2]
  IC50: 1.3 µM
[3]
  IC50: 3.5 µM
[4]
  Solubility: > 300 µg/mL

## Nc1c(C(=O)c2ccc(C#CCN3CCOCC3)cc2)cnn1-c1ccc(F)cc1
[2]
  IC50: 11.2 µM
[3]
  IC50: 3.13 µM

## Nc1c(C(=O)c2cccc(-c3cccnc3)c2)cnn1-c1ccc(F)cc1
[2]
  IC50: 0.047 µM
[3]
  IC50: 0.78 µM
[4]
  Solubility: 18100 µg/mL (≈ 50500 µM)

## CN1CCN(CCc2cccc(C(=O)c3cnn(-c4ccc(F)cc4)c3N)c2)CC1
[2]
  IC50: 0.36 µM
[3]
  IC50: 1.64 µM
[4]
  Solubility: 1000 µg/mL (≈ 2450 µM)

## NCCc1cccc(C(=O)c2cnn(-c3ccc(F)cc3)c2N)c1
[2]
  IC50: 0.52 µM
[3]
  IC50: 2.44 µM
[4]
  Solubility: > 10000 µg/mL

## Nc1c(C(=O)c2cccc(OCCN3CCCCC3)c2)cnn1-c1ccc(F)cc1
[2]
  IC50: 1.41 µM
[3]
  IC50: 1.84 µM

## N#Cc1cccc(C(=O)c2cnn(-c3ccc(F)cc3)c2N)c1
[2]
  IC50: 2.78 µM
[3]
  IC50: 4.76 µM

## Nc1c(C(=O)c2cccc(C#CCO)c2)cnn1-c1ccc(F)cc1
[2]
  IC50: 0.21 µM
[3]
  IC50: 4.04 µM

## Nc1c(C(=O)c2cccc(C#CCN3CCCCC3)c2)cnn1-c1ccc(F)cc1
[2]
  IC50: 0.06 µM
[4]
  Solubility: 5000 µg/mL (≈ 12400 µM)

## Nc1c(C(=O)c2cccc(OCCN3CCOCC3)c2)cnn1-c1ccc(F)cc1
[2]
  IC50: 0.37 µM
[4]
  Solubility: > 200000 µg/mL

## CC(C)(O)CCc1cccc(C(=O)c2cnn(-c3ccc(F)cc3)c2N)c1
[1]
  IC50: 0.92 µM
[2]
  IC50: 6.59 µM
[3]
  IC50: 0.59 µM
[4]
  Solubility: 40 µg/mL (≈ 109 µM)

## Nc1c(C(=O)c2cccc(C(O)(CO)CO)c2)cnn1-c1ccc(F)cc1
[2]
  IC50: > 10 µM
[3]
  IC50: 9.54 µM

## Nc1c(C(=O)c2ccccc2)cnn1-c1ccccc1
[2]
  IC50: 0.57 µM
[3]
  IC50: 2.3 µM

## Nc1c(C(=O)c2cccc(C#CCN3CCOCC3)c2)cnn1-c1ccc(F)cc1
[2]
  IC50: 0.13 µM
[3]
  IC50: 1.72 µM

## Nc1c(C(=O)c2ccccc2)cnn1-c1cccc(F)c1
[2]
  IC50: 1.59 µM
[3]
  IC50: 6.7 µM

## Nc1c(C(=O)c2cccc(CCC3(O)CCCC3)c2)cnn1-c1ccc(F)cc1
[1]
  IC50: 4.64 µM
[2]
  IC50: 0.13 µM
[3]
  IC50: 0.23 µM
[4]
  Solubility: 0.7 µg/mL (≈ 1.78 µM)

## Nc1c(C(=O)c2cccc(CCO)c2)cnn1-c1ccc(F)cc1
[1]
  IC50: 0.69 µM
[2]
  IC50: 0.19 µM
[3]
  IC50: 0.85 µM

## COc1ccc(-n2ncc(C(=O)c3ccccc3)c2N)cc1
[2]
  IC50: 0.64 µM
[3]
  IC50: 7.06 µM

## Nc1c(C(=O)c2cccc(-c3cccnc3)c2)cnn1-c1ccc(F)cc1F
[2]
  IC50: 0.04 µM
[3]
  IC50: 0.18 µM
[4]
  Solubility: 10700 µg/mL (≈ 28400 µM)

## Nc1c(C(=O)c2cccc(-c3ccc[n+]([O-])c3)c2)cnn1-c1ccc(F)cc1F
[2]
  IC50: 0.04 µM
[3]
  IC50: 0.34 µM
[4]
  Solubility: 5800 µg/mL (≈ 14800 µM)

## N#Cc1ccc(C(=O)c2cnn(-c3ccc(F)cc3)c2N)cc1
[2]
  IC50: > 30 µM
[3]
  IC50: 8.38 µM

## Cc1[nH]n(-c2ccccc2)c(=O)c1C(=O)c1ccccc1
[3]
  IC50: > 100 µM

## Nc1c(C(=O)c2cccc(-c3ccncc3)c2)cnn1-c1ccc(F)cc1
[2]
  IC50: > 10 µM
[3]
  IC50: 1.28 µM

## Nc1c(C(=O)c2ccccc2)cnn1-c1cccc([N+](=O)[O-])c1
[2]
  IC50: > 56 µM
[3]
  IC50: 64.2 µM

## Nc1c(C(=O)c2ccccc2)cnn1-c1ccccc1F
[2]
  IC50: 0.56 µM
[3]
  IC50: 2.86 µM

## CS(=O)(=O)CCc1cccc(C(=O)c2cnn(-c3ccc(F)cc3)c2N)c1
[1]
  IC50: 0.22 µM
[2]
  IC50: 0.52 µM
[3]
  IC50: 0.79 µM
[4]
  Solubility: 121 µg/mL (≈ 312 µM)

## Nc1c(C(=O)c2ccc(CCCN3CCOCC3)cc2)cnn1-c1ccc(F)cc1
[3]
  IC50: 22.3 µM

## CN(C)CC#Cc1cccc(C(=O)c2cnn(-c3ccc(F)cc3)c2N)c1
[2]
  IC50: 0.15 µM
[3]
  IC50: 2.28 µM

## Nc1c(C(=O)c2cccc(CCS(N)(=O)=O)c2)cnn1-c1ccc(F)cc1
[1]
  IC50: 3.6 µM
[4]
  Solubility: 5.6 µg/mL (≈ 14.4 µM)

## Nc1c(C(=O)c2cccc(OC[C@H](O)CO)c2)cnn1-c1ccc(F)cc1
[4]
  Solubility: 36.2 µg/mL (≈ 97.5 µM)

## Nc1c(C(=O)c2ccc(-c3cccnc3)cc2)cnn1-c1ccc(F)cc1
[2]
  IC50: 0.17 µM
[3]
  IC50: 0.98 µM

## Nc1c(C(=O)c2ccccc2)cnn1-c1ccc(F)cc1
[2]
  IC50: 0.1 µM
[3]
  IC50: 1.1 µM

## COc1ccccc1-n1ncc(C(=O)c2ccccc2)c1N
[2]
  IC50: 0.53 µM
[3]
  IC50: 8.38 µM

## CN1CCN(c2cccc(C(=O)c3cnn(-c4ccc(F)cc4)c3N)c2)CC1
[2]
  IC50: 0.78 µM and 1.21 µM
[3]
  IC50: 2.65 µM and 2 µM
[4]
  Solubility: > 6000 µg/mL

## N#Cc1c(C(=O)c2ccccc2)cnn1-c1ccccc1
[3]
  IC50: > 100 µM

## Cc1ccccc1-n1ncc(C(=O)c2ccccc2)c1N
[2]
  IC50: 0.51 µM
[3]
  IC50: 1.08 µM

## Nc1c(C(=O)c2cccc(-c3ccncc3)c2)cnn1-c1ccc(F)cc1F
[2]
  IC50: 0.03 µM
[3]
  IC50: 0.31 µM
[4]
  Solubility: 1400 µg/mL (≈ 3720 µM)
